Test results reported in patent US5962516A, “Immunosuppressive compounds and methods” (priority 1999, dated 1999).
Structures can show the parent of a compound that is named as a salt.

Assays:
[1] = system: heart transplant rejection; assay: Cardiac allograft survival (heterotopic heart transplantation in rats); format: in vivo, rat (Brown Norway donors, Lewis recipients); details: for mean survival time of allograft / mean survival time compared with underivatized triptolide: i.p.; for mean survival time of allograft: day -1 to 14; for mean survival time compared with underivatized triptolide: equimolar doses (YM-273 0.40, YM-274 0.33, T10 0.25 mg/kg)
Excerpt: Treatment of transplantation rejection, in accordance with the invention, is illustrated for rejection of an allograft by the in vivo heart transplantation model used in Example 14. The method involves a well-characterized rat model system (Ono and Lindsey, 1969) in which a transplanted heart is attached to the abdominal great vessels of an allogeneic recipient animal, and the viability of the transplanted heart is gauged by the heart's ability to beat in the recipient animal.
In one study, the animals were administered by intraperitoneal injections, from one day preceding to 14 days following heart transplantation, either control solution (5% ethanol, 10 ml/kg), triptolide (designated as T10), or with two concentrations each of YM-273 and YM-274. There were three animals in each group, except for the control group in which five animals were used.
Heterotopic whole heart transplantation was performed according to the standard method (Ono and Lindsey, 1969). The donors (Brown Norway rats, 200-255 g, Charles River, Wilmington, Mass.) and recipients (Adult male Lewis rats, 225-275g, Charles River) were anesthetized with sodium pentobarbital (40 mg/kg). Following adequate donor anticoagulation using heparin, the heart graft was removed and stored at 4° C. in PhysioSol Irrigation Solution (Abbott Laboratories, N. Chicago, Ill.). The ascending aorta and pulmonary artery were transected, and the vena cava and pulmonary veins were ligated. […] The cold ischemic time of all the cardiac grafts was less than 45 minutes. Graft heartbeat was monitored by abdominal palpation. The period of functional graft survival was measured as the number of days during which cardiac graft contractions could be detected by abdominal palpation. Results were confirmed by direct visualization at laparotomy.
Heart transplant recipient animals prepared as described above (3-5 animals/group) were treated with (i) control solution (5% ethanol, 10 ml/kg), (ii) YM-273 at 0.10 mg/kg and 0.40 mg/kg (FIG. 5A), (iii) YM-274 at 0.084 and 0.33 mg/kg (FIG. 5B), and (iv) and T10 (triptolide) 0.25 mg/kg (FIG. 6). In addition to showing the results for T10, FIG. 6 repeats the results from FIGS. 5A-5B for YM-273 and YM-274 at 0.40 and 0.33 mg/kg, respectively, such that their concentrations were equimolar relative to T10. All compounds were administered intraperitoneally. Treatment started on the day prior to surgery and continuing daily until postoperative day 14, or until the end of allograft survival.

[2] = Cytotoxicity by MTT reduction reported with the IL-1 assay (Table I); format: cell-based; details: mouse, thymocytes, cytotoxic when toxicity greater than 25%
Experimental: Potential cytotoxicity of the test samples was assessed by the measurement of their effect on the reduction of MTT (3-[4,5-Dimethylthiazole-2-yl]-2,5-diphenyltetrazolium bromide) by cultured cells. MTT, a yellow-colored compound, is reduced by mitochondrial enzymes to form the purple crystalline reduction product formazane, providing an index of cellular respiration on viable cells as well as a sensitive assay for cytotoxicity (Mossmann, 1983).
The cytotoxicity was assessed in cultured human PBMC and mouse thymocytes. A stock solution of MTT (Sigma) at 5 mg/ml in phosphate buffered saline, pH 7.4, was prepared and stored in the dark at 4° C. PBMCs or thymocytes were cultured with various concentrations of test samples in flatbottom 96-well tissue culture plates (Costar) under the same conditions as those described above, but the stimulants (X-35 or IL-1+PHA) were replaced by appropriate medium. Untreated cells with medium alone and without the test samples were used as controls. After incubation for 21 hours, 25 μl of MTT solution was added to each well. After an additional three hours of incubation, the experiment was terminated by addition of a solution of 10% sodium dodecyl sulfate in 0.01 N HCl. Following overnight incubation at 37° C. to solubilize the formazane crystals, optical density was determined at 570-650 nm in microplate reader. […]

testis weight = assay: Effect on testis weight in male mice; format: in vivo, mouse (BDF1); set-up: decrease in testis weight: dose or concentration left out as unconfirmed; details: 5 days on/2 days off, 5 weeks, vs saline control
Experimental: The compounds of the invention are also effective in reducing or inhibiting male fertility, wherein administration of a compound of the invention to a male mammal is effective to reduce the potency of the male's semen, thereby reducing or blocking fertilization. Triptolide succinate (YM-262) was tested for inhibition of fertility in male BDF1 mice, according to protocols described in Example 15. The compound was administered intraperitoneally (IP) in a saline solution, using a cycle of daily administration for 5 days followed by a two day cessation of treatment. […] The cycle was repeated for 5 weeks before evaluation of physiological effects (testis weight) and reproductive performance.
Triptolide succinate (YM-262) was tested for fertility control in male BDF1 mice, using a cycle of daily administration for 5 days followed by a two day cessation of treatment. The cycle was repeated for 5 weeks, with dosing on days 0-4, 7-11, 14-18, 21-25 and 28-32 before evaluation of physiological effects and reproductive performance. […]
On day 32, five to six mice from each dosing group were sacrificed, and the testes were removed and stored in formalin for histological analysis and weight determination. The average of both testes was calculated for each mouse, and the mean and standard error of the mean (S.E.) were determined.

[3] = Stability in blood serum by TLC; format: in vitro ADME; details: rat serum, 37° C
Experimental: The stability of triptolide succinate in blood serum was determined as detailed in Example 10B. In this study, a solution of triptolide succinate (YM-262, free acid) in DMSO was mixed with rat serum and incubated at 37° C. The mixture was assayed periodically by thin layer chromatography (TLC) to follow the hydrolysis of the triptolide succinate over time.
A solution of triptolide succinate (free acid; YM-262) in DMSO was made at a concentration of 25 mg/ml, and 0.1 ml of this solution was mixed with 0.5 ml of rat serum. The mixture was incubated at 37° C. Aliquots of the mixture were taken at 1, 3, 5, 15, 45 minutes and 18 hours and analyzed by thin layer chromatography (TLC). The TLC plates were developed in 1:5 CH2 Cl2 /Et2 O. After development, the plates were treated with iodine vapor and examined under a UV lamp. Triptolide and triptolide succinate were used as reference compounds (Rf =0.60 and 0.45, respectively).

**Q.** For `CC(C)C12OC1C1OC13C1(C)CCC4=C(COC4=O)C1CC1OC13C2OC(=O)CCC(=O)O` (centres unmarked) [YM-274, Triptolide Succinate Sodium Salt], which “mean survival time of allograft” value ([1]; YM-274, 0.0837 mg/kg) is on record?
**A.** 10 days

**Q.** What about the “mean survival time compared with underivatized triptolide” value ([1]; Succinate Sodium Salt) of the same molecule?
**A.** substantially better

**Q.** Which CC50 at 24 h [2] does the source give for `CC(C)C12OC1C1OC13C1(C)CCC4=C(COC4=O)C1CC1OC13C2OC(=O)CCC(=O)O` (centres unmarked) [YM-262, Triptolide Succinate] here?
**A.** > 12.5 µg/mL

**Q.** And the “reduction in testis weight” value (testis weight; 0.13 mg/kg/day i.p.)?
**A.** approximately 13%

**Q.** And the “decrease in testis weight” value (testis weight; (as printed) i.p.)?
**A.** approximately 13%

**Q.** What about the “time for hydrolysis in blood serum to triptolide” value [3] of the same molecule?
**A.** ≤ 15 min

**Q.** What about the “time for hydrolysis in serum to release free triptolide” value [3] of the same molecule?
**A.** less than an hour

**Q.** What about the “stability in blood serum, 3 minutes” value ([3]; 3 minutes, TLC) of the same molecule?
**A.** only triptolide succinate was detected by TLC

**Q.** What about the “stability in blood serum, 15 minutes” value ([3]; 15 minutes, TLC) of the same molecule?
**A.** the triptolide succinate spot was gone

**Q.** And the “stability in blood serum, 3 to 5 minutes” value ([3]; first 3 to 5 minutes, TLC)?
**A.** most of the triptolide succinate remained

**Q.** Which results are given for `CC(C)[C@]12O[C@H]1[C@@H]1O[C@]13[C@]1(O[C@H]1C[C@H]1C4=C(CC[C@@]13C)C(=O)OC4)[C@@H]2O` [Triptolide, triptolide, reference compound]?
**A.** CC50 at 24 h [2]: > 12.5 µg/mL; triptolide formed from triptolide succinate in serum, 15 minutes ([3]; 15 minutes after addition of YM-262, TLC): a new spot corresponding to triptolide had appeared; triptolide formed from triptolide succinate in serum, 45 minutes ([3]; 45 minutes after addition of YM-262, TLC): the triptolide spot had also disappeared

**Q.** For `CC(C)C12OC1C1OC13C1(C)CCC4=C(COC4=O)C1CC1OC13C2OC(=O)CCC(=O)O` (centres unmarked) [YM-273, Triptolide Succinate Tris Salt], which “mean survival time of allograft” value ([1]; YM-273, 0.1 mg/kg) is on record?
**A.** 7 days

**Q.** What about the “mean survival time compared with control” value ([1]; YM-273, 0.4 mg/kg i.p.) of the same molecule?
**A.** substantial improvement over the control

**Q.** What about the “mean survival time of allograft” value ([1]; YM-273, 0.4 mg/kg) of the same molecule?
**A.** 24 days

**Q.** What about the “mean survival time compared with underivatized triptolide” value [1] of the same molecule?
**A.** somewhat better than that seen with underivatized triptolide
